How the values were obtained:
[1] = cited from earlier work
[2] = test system: A549 Human Lung Carcinoma; experiment: cytotoxicity, cell viability count after 96 h of treatment; assay type: cell-based; settings: 20 nM, trypan blue
Experimental: (§1) After 96 hours of treatment, cells were counted for viability.
(§2) Materials and Equipment: Eagle's Minimum Essential Media (ATCC No. 30-2003); F-12K Media (ATCC No. 30-2008); Fetal Bovine Serum (ATCC No. 30-2020); Penicillin/Streptomycin (Thermo Fisher No. 15-140-122); Human Recombinant Insulin 0.01 mg/mL (Sigma No. 19278); Trypsin (ATCC No. 25-200-072); Phosphate Buffered Saline (Corning from Thermo Fisher No. 21040CM); Hemocytometer (Hausser from Fischer No. 02-671-6); Trypan blue (Gibco No. 15250061); p100 tissue culture dishes (Falcon-Corning No. 08-772E). Ixabepilone (Lot 3L7304N) was provided by R-Pharm US. […] Saline control was phosphate-buffered 150 mM NaCl solution.
(§3) Cells were rapidly thawed in a water bath at 37° C. and resuspended in appropriate media before being transferred to 60 mm or 100 mm tissue culture dishes. A549 cells were maintained in F12-K media, supplemented with 10% fetal bovine serum, and 1% penicillin/streptomycin. MCF7 cells were maintained in Eagle's Minimum Essential media, supplemented with 10% fetal bovine serum, 1% penicillin/streptomycin, and 0.01 mg/mL insulin. All cells were passaged at least three times before treatment. […] Saline was administered at the equivalent volume used for the ixabepilone treatment for each respective cell line. At 96 h, cells were trypsinized and harvested and counted with trypan blue on a hemocytometer.

[3] = test system: MCF7 Human Breast Adenocarcinoma; experiment: as above; assay type: cell-based; settings: 40 nM, trypan blue
Experimental: as §1, §2, §3

C/C(=C\c1csc(C)n1)[C@@H]1C[C@@H]2O[C@]2(C)CCC[C@H](C)[C@H](O)[C@@H](C)C(=O)C(C)(C)[C@@H](O)CC(=O)N1 [ixabepilone, (1S,3S,7S,10R,11S,12S,16R)-7,11dihydroxy-8,8,10,12,16-pentamethyl-3-[(1E)-1-methyl-2-(2-methyl-4-thiazolyl)ethenyl]17-oxa-4-azabicyclo[14.1.0] heptadecane-5,9-dione]
tolerability ([1]; doses of 0.1, 1.0 or 2.0 mg/kg, weekly IV, 5 doses): generally well tolerated
no observed adverse effect level (NOAEL) ([1]; weekly intravenous dosing for one month (5 doses)): 0.1 mg/kg
average cell viability count [2]: 106×10^4
average cell viability count [3]: 70×10^4

From patent publication US11478505B2, “Compositions of ixabepilone” (R-Pharm US Operating LLC, priority 2020, dated 2022)
